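Dose response: 5 concentrations. Exposure: 48 h. Format: 96-well plates. Endpoint: linear interpolation; highest concentration if not reached. GI50: concentration for 50% inhibition of growth.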 Calls of active or inactive are those of the source. No stated cut-off is given here; in the data, active = GI50 up to about 1.1 µM and inactive = higher.
Assays:
Assay in all cases: NCI anticancer screen, dose series, 48 h
[1] = tested on: SF-268
[2] = tested on: T47D
[3] = tested on: HCC 2998
[4] = tested on: SK-MEL-28
[5] = tested on: A549
[6] = tested on: HCT-116
[7] = tested on: SNB-19
[8] = tested on: Hs-578T
[9] = tested on: SK-MEL-5
[10] = tested on: TK-10
[11] = tested on: NCI/ADR-RES
[12] = tested on: BT-549
[13] = tested on: COLO 205
[14] = tested on: PC-3
[15] = tested on: OVCAR-8
[16] = tested on: CCRF-CEM
[17] = tested on: 786-0
[18] = tested on: SNB-75
[19] = tested on: M14
[20] = tested on: K562
[21] = tested on: UACC-257
[22] = tested on: SR
[23] = tested on: SK-MEL-2
[24] = tested on: LOX IMVI
[25] = tested on: IGROV-1
[26] = tested on: HT-29
[27] = tested on: MOLT-4
[28] = tested on: MDA-MB-435
[29] = tested on: SW-620
[30] = tested on: RXF 393
[31] = tested on: HL-60
[32] = tested on: SN12C
[33] = tested on: OVCAR-5
[34] = tested on: HCT-15
[35] = tested on: EKVX
[36] = tested on: NCI-H23
[37] = tested on: ACHN
[38] = tested on: UO-31
[39] = tested on: MDA-N
[40] = tested on: U-251
[41] = tested on: SF-539
[42] = tested on: RPMI-8226
[43] = tested on: OVCAR-4
[44] = tested on: KM12
[45] = tested on: MDA-MB-231
[46] = tested on: SF-295
[47] = tested on: NCI-H460
[48] = tested on: DU-145
[49] = tested on: HOP-62
[50] = tested on: CAKI-1
[51] = tested on: A498
[52] = tested on: HOP-92
[53] = tested on: NCI-H226
[54] = tested on: OVCAR-3
[55] = tested on: UACC-62
[56] = tested on: NCI-H522
[57] = tested on: Malme-3M
[58] = tested on: MCF7
[59] = tested on: SK-OV-3

For `CCOC(=O)C(NC(=O)CC)(Nc1cc(C)on1)C(F)(F)F` (stereo not drawn), the GI50 [1] was > 100 µM (inactive), the GI50 [2] was > 100 µM (inactive) and the GI50 [3] was > 100 µM (inactive). For the same compound, the GI50 [4] was > 100 µM (inactive), the GI50 [5] was > 100 µM (inactive) and the GI50 [6] was > 100 µM (inactive). For the same compound, the GI50 [7] was > 100 µM (inactive), the GI50 [8] was > 100 µM (inactive) and the GI50 [9] was > 100 µM (inactive). For the same compound, the GI50 [10] was > 100 µM (inactive), the GI50 [11] was > 100 µM (inactive) and the GI50 [12] was > 100 µM (inactive). For the same compound, the GI50 [13] was > 100 µM (inactive), the GI50 [14] was > 100 µM (inactive) and the GI50 [15] was > 100 µM (inactive). The GI50 [16] was > 100 µM (inactive), the GI50 [17] was > 100 µM (inactive) and the GI50 [18] was > 100 µM (inactive). The GI50 [19] was > 100 µM (inactive), the GI50 [20] was > 100 µM (inactive) and the GI50 [21] was > 100 µM (inactive). For the same compound, the GI50 [22] was > 100 µM (inactive), the GI50 [23] was > 100 µM (inactive) and the GI50 [24] was > 100 µM (inactive). For the same compound, the GI50 [25] was > 100 µM (inactive), the GI50 [26] was > 100 µM (inactive) and the GI50 [27] was > 100 µM (inactive). For the same compound, the GI50 [28] was > 100 µM (inactive), the GI50 [29] was > 100 µM (inactive) and the GI50 [30] was > 100 µM (inactive). The GI50 [31] was > 100 µM (inactive), the GI50 [32] was > 100 µM (inactive) and the GI50 [33] was > 100 µM (inactive). The GI50 [34] was greater than 100 µM, the GI50 [35] was > 100 µM (inactive) and the GI50 [36] was > 100 µM (inactive). The GI50 [37] was > 100 µM (inactive), the GI50 [38] was > 100 µM (inactive) and the GI50 [39] was > 100 µM (inactive). The GI50 [40] was > 100 µM (inactive), the GI50 [41] was > 100 µM (inactive) and the GI50 [42] was > 100 µM (inactive).
With `O=C(CC(=O)N1N=C(N2c3ccccc3Sc3ccccc32)CC1c1ccccc1)Nc1ccccc1Cl` (stereo not drawn) the GI50 [1] was > 100 µM (inactive), the GI50 [2] was > 100 µM (inactive) and the GI50 [43] was > 100 µM (inactive). The GI50 [3] was > 100 µM (inactive), the GI50 [44] was > 100 µM (inactive) and the GI50 [45] was > 100 µM (inactive). For the same compound, the GI50 [46] was > 100 µM (inactive), the GI50 [4] was > 100 µM (inactive) and the GI50 [5] was > 100 µM (inactive). The GI50 [6] was > 100 µM (inactive), the GI50 [7] was > 100 µM (inactive) and the GI50 [47] was > 100 µM (inactive). The GI50 [8] was > 100 µM (inactive), the GI50 [9] was > 100 µM (inactive) and the GI50 [10] was > 100 µM (inactive). The GI50 [11] was > 100 µM (inactive), the GI50 [48] was > 100 µM (inactive) and the GI50 [12] was > 100 µM (inactive). For the same compound, the GI50 [13] was > 100 µM (inactive), the GI50 [14] was > 100 µM (inactive) and the GI50 [49] was > 100 µM (inactive). For the same compound, the GI50 [15] was > 100 µM (inactive), the GI50 [16] was > 100 µM (inactive) and the GI50 [17] was > 100 µM (inactive). For the same compound, the GI50 [18] was > 100 µM (inactive), the GI50 [19] was > 100 µM (inactive) and the GI50 [50] was > 100 µM (inactive). For the same compound, the GI50 [20] was > 100 µM (inactive), the GI50 [21] was > 100 µM (inactive) and the GI50 [23] was > 100 µM (inactive). The GI50 [51] was > 100 µM (inactive), the GI50 [25] was > 100 µM (inactive) and the GI50 [26] was > 100 µM (inactive). For the same compound, the GI50 [27] was > 100 µM (inactive), the GI50 [28] was > 100 µM (inactive) and the GI50 [52] was > 100 µM (inactive). For the same compound, the GI50 [29] was > 100 µM (inactive), the GI50 [53] was > 100 µM (inactive) and the GI50 [30] was > 100 µM (inactive). For the same compound, the GI50 [31] was > 100 µM (inactive), the GI50 [32] was > 100 µM (inactive) and the GI50 [33] was > 100 µM (inactive). For the same compound, the GI50 [34] was greater than 100 µM, the GI50 [35] was > 100 µM (inactive) and the GI50 [36] was > 100 µM (inactive). The GI50 [37] was > 100 µM (inactive), the GI50 [54] was > 100 µM (inactive) and the GI50 [55] was > 100 µM (inactive). The GI50 [38] was > 100 µM (inactive), the GI50 [40] was > 100 µM (inactive) and the GI50 [41] was > 100 µM (inactive). The GI50 [56] was > 100 µM (inactive) and the GI50 [42] was > 100 µM (inactive).
In the case of `CC(Br)CN1CCOCC1` (stereo not drawn), the GI50 [1] is reported as > 100 µM (inactive), the GI50 [2] is reported as > 100 µM (inactive) and the GI50 [3] is reported as > 100 µM (inactive). For the same compound, the GI50 [44] was > 100 µM (inactive), the GI50 [45] was > 100 µM (inactive) and the GI50 [4] was > 100 µM (inactive). The GI50 [5] was > 100 µM (inactive), the GI50 [6] was > 100 µM (inactive) and the GI50 [7] was > 100 µM (inactive). For the same compound, the GI50 [47] was > 100 µM (inactive), the GI50 [8] was > 100 µM (inactive) and the GI50 [9] was > 100 µM (inactive). The GI50 [10] was > 100 µM (inactive), the GI50 [11] was > 100 µM (inactive) and the GI50 [48] was > 100 µM (inactive). The GI50 [12] was > 100 µM (inactive), the GI50 [13] was > 100 µM (inactive) and the GI50 [14] was > 100 µM (inactive). The GI50 [49] was > 100 µM (inactive), the GI50 [15] was > 100 µM (inactive) and the GI50 [17] was > 100 µM (inactive). The GI50 [19] was > 100 µM (inactive), the GI50 [50] was > 100 µM (inactive) and the GI50 [20] was 50 µM (inactive). For the same compound, the GI50 [21] was > 100 µM (inactive), the GI50 [22] was 13.9 µM (inactive) and the GI50 [57] was > 100 µM (inactive). For the same compound, the GI50 [23] was > 100 µM (inactive), the GI50 [51] was > 100 µM (inactive) and the GI50 [24] was > 100 µM (inactive). The GI50 [25] was > 100 µM (inactive), the GI50 [26] was > 100 µM (inactive) and the GI50 [28] was > 100 µM (inactive). For the same compound, the GI50 [52] was > 100 µM (inactive), the GI50 [29] was > 100 µM (inactive) and the GI50 [53] was > 100 µM (inactive). The GI50 [30] was > 100 µM (inactive), the GI50 [31] was 10.5 µM (inactive) and the GI50 [32] was > 100 µM (inactive). For the same compound, the GI50 [58] was > 100 µM (inactive), the GI50 [33] was > 100 µM (inactive) and the GI50 [34] was greater than 100 µM. For the same compound, the GI50 [35] was > 100 µM (inactive), the GI50 [36] was > 100 µM (inactive) and the GI50 [37] was > 100 µM (inactive). The GI50 [54] was > 100 µM (inactive), the GI50 [55] was > 100 µM (inactive) and the GI50 [38] was > 100 µM (inactive). For the same compound, the GI50 [59] was > 100 µM (inactive), the GI50 [40] was > 100 µM (inactive) and the GI50 [41] was > 100 µM (inactive). The GI50 [56] was > 100 µM (inactive) and the GI50 [42] was > 100 µM (inactive).

— ChEMBL document CHEMBL1201862, “PubChem BioAssay data set” (2004)
